Patent US6472348B1, “Pyridone derivatives and herbicides” (Kumiai Chemical Industry Co., Ltd., priority 1996, dated 2002)

These compounds were tested on monochoria (Mo) (assay: Test Example 1: herbicidal effects by paddy field soil treatment). Settings: 100 g of the active ingredient per 10 ares, 21st day after the application, index 0-5 of Table 47.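 Note: grade of growth control; 5 = at least 90%; 4 = 70 to 90%; 3 = 50 to 70%; 2 = 30 to 50%; 1 = 10 to 30%; 0 = under 10%.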
Assay type: in vivo
In short: (§1)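 Greenhouse pot test in flooded paddy soil, dosed at 100 g a.i. per 10 ares; effect scored on day 21.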
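Throughout, for Herbicidal effects Sc: grade of growth control; 5 = at least 90%; 4 = 70 to 90%; 3 = 50 to 70%; 2 = 30 to 50%; 1 = 10 to 30%; 0 = under 10%.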

SMILES | Herbicidal effects Mo
Cn1c(C(F)(F)F)ccc(-c2cc(C3OCCO3)c(Cl)cc2F)c1=O [1-133] | 5
Cn1c(C(F)(F)F)ccc(-c2cc(C(=O)[O-])c(Cl)cc2F)c1=O.[Na+] [1-144] | 5
Cn1c(C(F)(F)F)ccc(-c2cc(CO)c(Cl)cc2F)c1=O [1-135] | 5
Cc1cc(-c2ccc(Cl)cc2Cl)c(=O)n(C)c1C(F)(F)F [Compound No. 1-11] | 5
COCOc1cc(-c2ccc(C(F)(F)F)n(C)c2=O)c(F)cc1Cl [1-24] | 5

The compounds below were run on barnyardgrass (Ec) in the same assay as above. Settings: 100 g of the active ingredient per 10 ares, 21st day after the application, index 0-5 of Table 47.
Assay type: in vivo
In short: as §1

SMILES | Herbicidal effects Ec
Cn1c(C(F)(F)F)ccc(-c2cc(C3OCCO3)c(Cl)cc2F)c1=O [1-133] | 5
Cn1c(C(F)(F)F)ccc(-c2cc(C(=O)[O-])c(Cl)cc2F)c1=O.[Na+] [1-144] | 5
Cn1c(C(F)(F)F)ccc(-c2cc(CO)c(Cl)cc2F)c1=O [1-135] | 5
Cc1cc(-c2ccc(Cl)cc2Cl)c(=O)n(C)c1C(F)(F)F [Compound No. 1-11] | 5
COCOc1cc(-c2ccc(C(F)(F)F)n(C)c2=O)c(F)cc1Cl [1-24] | 5

The compounds below were run on bulrush (Sc) in the same assay as above. Settings: 100 g of the active ingredient per 10 ares, 21st day after the application, index 0-5 of Table 47.
Assay type: in vivo
In short: as §1

SMILES | Herbicidal effects Sc
Cn1c(C(F)(F)F)ccc(-c2cc(C3OCCO3)c(Cl)cc2F)c1=O [1-133] | 5
Cn1c(C(F)(F)F)ccc(-c2cc(C(=O)[O-])c(Cl)cc2F)c1=O.[Na+] [1-144] | 5
Cn1c(C(F)(F)F)ccc(-c2cc(CO)c(Cl)cc2F)c1=O [1-135] | 5
Cc1cc(-c2ccc(Cl)cc2Cl)c(=O)n(C)c1C(F)(F)F [Compound No. 1-11] | 5
COCOc1cc(-c2ccc(C(F)(F)F)n(C)c2=O)c(F)cc1Cl [1-24] | 5

What follows are compounds tested on barnyardgrass (Ec) (assay: Test Example 2: herbicidal effects by upland field soil treatment). Settings: 100 g of the active ingredient per 10 ares, 21st day after the application, index 0-5 of Table 47.
Assay type: in vivo
Description: (§2) (Test on Herbicidal Effects by Upland Field Soil Treatment)

SMILES | Herbicidal effects Ec
Cn1c(C(F)(F)F)ccc(-c2cc(C3OCCO3)c(Cl)cc2F)c1=O [1-133] | 5
Cn1c(C(F)(F)F)ccc(-c2cc(C(=O)[O-])c(Cl)cc2F)c1=O.[Na+] [1-144] | 5
Cn1c(C(F)(F)F)ccc(-c2cc(CO)c(Cl)cc2F)c1=O [1-135] | 5
Cc1cc(-c2ccc(Cl)cc2Cl)c(=O)n(C)c1C(F)(F)F [Compound No. 1-11] | 5
COCOc1cc(-c2ccc(C(F)(F)F)n(C)c2=O)c(F)cc1Cl [1-24] | 5

The compounds below were run on common lambsquarters (Ch) in the same assay as above. Settings: 100 g of the active ingredient per 10 ares, 21st day after the application, index 0-5 of Table 47.
Assay type: in vivo
Description: as §2

SMILES | Herbicidal effects Ch
Cn1c(C(F)(F)F)ccc(-c2cc(C3OCCO3)c(Cl)cc2F)c1=O [1-133] | 5
Cn1c(C(F)(F)F)ccc(-c2cc(C(=O)[O-])c(Cl)cc2F)c1=O.[Na+] [1-144] | 5
Cn1c(C(F)(F)F)ccc(-c2cc(CO)c(Cl)cc2F)c1=O [1-135] | 5
Cc1cc(-c2ccc(Cl)cc2Cl)c(=O)n(C)c1C(F)(F)F [Compound No. 1-11] | 5
COCOc1cc(-c2ccc(C(F)(F)F)n(C)c2=O)c(F)cc1Cl [1-24] | 5

These compounds were tested on pale smartweed (Po) in the same assay as above. Settings: 100 g of the active ingredient per 10 ares, 21st day after the application, index 0-5 of Table 47.
Assay type: in vivo
Description: as §2

SMILES | Herbicidal effects Po
Cn1c(C(F)(F)F)ccc(-c2cc(C3OCCO3)c(Cl)cc2F)c1=O [1-133] | 5
Cn1c(C(F)(F)F)ccc(-c2cc(C(=O)[O-])c(Cl)cc2F)c1=O.[Na+] [1-144] | 5
Cn1c(C(F)(F)F)ccc(-c2cc(CO)c(Cl)cc2F)c1=O [1-135] | 5
Cc1cc(-c2ccc(Cl)cc2Cl)c(=O)n(C)c1C(F)(F)F [Compound No. 1-11] | 5
COCOc1cc(-c2ccc(C(F)(F)F)n(C)c2=O)c(F)cc1Cl [1-24] | 5

Each compound was assayed on slender amaranth (Am) in the same assay as above. Settings: 100 g of the active ingredient per 10 ares, 21st day after the application, index 0-5 of Table 47.
Assay type: in vivo
Description: as §2

SMILES | Herbicidal effects Am
Cn1c(C(F)(F)F)ccc(-c2cc(C3OCCO3)c(Cl)cc2F)c1=O [1-133] | 5
Cn1c(C(F)(F)F)ccc(-c2cc(C(=O)[O-])c(Cl)cc2F)c1=O.[Na+] [1-144] | 5
Cn1c(C(F)(F)F)ccc(-c2cc(CO)c(Cl)cc2F)c1=O [1-135] | 5
Cc1cc(-c2ccc(Cl)cc2Cl)c(=O)n(C)c1C(F)(F)F [Compound No. 1-11] | 5
COCOc1cc(-c2ccc(C(F)(F)F)n(C)c2=O)c(F)cc1Cl [1-24] | 5

Each compound was assayed on rice flatsedge (Ci) in the same assay as above. Settings: 100 g of the active ingredient per 10 ares, 21st day after the application, index 0-5 of Table 47.
Assay type: in vivo
Description: as §2

SMILES | Herbicidal effects Ci
Cn1c(C(F)(F)F)ccc(-c2cc(C3OCCO3)c(Cl)cc2F)c1=O [1-133] | 5
Cn1c(C(F)(F)F)ccc(-c2cc(C(=O)[O-])c(Cl)cc2F)c1=O.[Na+] [1-144] | 5
Cn1c(C(F)(F)F)ccc(-c2cc(CO)c(Cl)cc2F)c1=O [1-135] | 5
Cc1cc(-c2ccc(Cl)cc2Cl)c(=O)n(C)c1C(F)(F)F [Compound No. 1-11] | 5
COCOc1cc(-c2ccc(C(F)(F)F)n(C)c2=O)c(F)cc1Cl [1-24] | 5

These compounds were tested on Digitaria ciliaris (Di) in the same assay as above. Settings: 100 g of the active ingredient per 10 ares, 21st day after the application, index 0-5 of Table 47.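 Note: grade of growth control; 5 = at least 90%; 4 = 70 to 90%; 3 = 50 to 70%; 2 = 30 to 50%; 1 = 10 to 30%; 0 = under 10%.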
Assay type: in vivo
Description: as §2

SMILES | Herbicidal effects Di
Cn1c(C(F)(F)F)ccc(-c2cc(C3OCCO3)c(Cl)cc2F)c1=O [1-133] | 5
Cn1c(C(F)(F)F)ccc(-c2cc(C(=O)[O-])c(Cl)cc2F)c1=O.[Na+] [1-144] | 5
Cn1c(C(F)(F)F)ccc(-c2cc(CO)c(Cl)cc2F)c1=O [1-135] | 5
Cc1cc(-c2ccc(Cl)cc2Cl)c(=O)n(C)c1C(F)(F)F [Compound No. 1-11] | 5
COCOc1cc(-c2ccc(C(F)(F)F)n(C)c2=O)c(F)cc1Cl [1-24] | 5

The compounds below were run on barnyardgrass (Ec) (assay: Test Example 3: herbicidal effects by upland field foliage treatment). Settings: 100 g of the active ingredient per 10 ares, evaluated on the 14th day after treatment.
Assay type: in vivo
Parameters: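 grade of growth control; 5 = at least 90%; 4 = 70 to 90%; 3 = 50 to 70%; 2 = 30 to 50%; 1 = 10 to 30%; 0 = under 10%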
In short: (§3)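 Post-emergence upland foliage test. Seedlings grown 2 weeks under glass in pots (120 cm^2) of sand, seed topped with soil; treated on the foliage, kept in greenhouse, then assessed at day 14 using rating standards.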

SMILES | Herbicidal effects Ec
Cn1c(C(F)(F)F)ccc(-c2cc(C3OCCO3)c(Cl)cc2F)c1=O [1-133] | 5
Cn1c(C(F)(F)F)ccc(-c2cc(C(=O)[O-])c(Cl)cc2F)c1=O.[Na+] [1-144] | 5
Cn1c(C(F)(F)F)ccc(-c2cc(CO)c(Cl)cc2F)c1=O [1-135] | 5
Cc1cc(-c2ccc(Cl)cc2Cl)c(=O)n(C)c1C(F)(F)F [Compound No. 1-11] | 5
COCOc1cc(-c2ccc(C(F)(F)F)n(C)c2=O)c(F)cc1Cl [1-24] | 5

What follows are compounds tested on common lambsquarters (Ch) in the same assay as above. Settings: 100 g of the active ingredient per 10 ares, evaluated on the 14th day after treatment.
Assay type: in vivo
Parameters: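 grade of growth control; 5 = at least 90%; 4 = 70 to 90%; 3 = 50 to 70%; 2 = 30 to 50%; 1 = 10 to 30%; 0 = under 10%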
In short: as §3

SMILES | Herbicidal effects Ch
Cn1c(C(F)(F)F)ccc(-c2cc(C3OCCO3)c(Cl)cc2F)c1=O [1-133] | 5
Cn1c(C(F)(F)F)ccc(-c2cc(C(=O)[O-])c(Cl)cc2F)c1=O.[Na+] [1-144] | 5
Cn1c(C(F)(F)F)ccc(-c2cc(CO)c(Cl)cc2F)c1=O [1-135] | 5
Cc1cc(-c2ccc(Cl)cc2Cl)c(=O)n(C)c1C(F)(F)F [Compound No. 1-11] | 5
COCOc1cc(-c2ccc(C(F)(F)F)n(C)c2=O)c(F)cc1Cl [1-24] | 5

What follows are compounds tested on pale smartweed (Po) in the same assay as above. Settings: 100 g of the active ingredient per 10 ares, evaluated on the 14th day after treatment.
Assay type: in vivo
Parameters: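 grade of growth control; 5 = at least 90%; 4 = 70 to 90%; 3 = 50 to 70%; 2 = 30 to 50%; 1 = 10 to 30%; 0 = under 10%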
In short: as §3

SMILES | Herbicidal effects Po
Cn1c(C(F)(F)F)ccc(-c2cc(C3OCCO3)c(Cl)cc2F)c1=O [1-133] | 5
Cn1c(C(F)(F)F)ccc(-c2cc(C(=O)[O-])c(Cl)cc2F)c1=O.[Na+] [1-144] | 5
Cn1c(C(F)(F)F)ccc(-c2cc(CO)c(Cl)cc2F)c1=O [1-135] | 5
Cc1cc(-c2ccc(Cl)cc2Cl)c(=O)n(C)c1C(F)(F)F [Compound No. 1-11] | 5
COCOc1cc(-c2ccc(C(F)(F)F)n(C)c2=O)c(F)cc1Cl [1-24] | 5

These compounds were tested on slender amaranth (Am) in the same assay as above. Settings: 100 g of the active ingredient per 10 ares, evaluated on the 14th day after treatment.
Assay type: in vivo
Parameters: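 grade of growth control; 5 = at least 90%; 4 = 70 to 90%; 3 = 50 to 70%; 2 = 30 to 50%; 1 = 10 to 30%; 0 = under 10%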
In short: as §3

SMILES | Herbicidal effects Am
Cn1c(C(F)(F)F)ccc(-c2cc(C3OCCO3)c(Cl)cc2F)c1=O [1-133] | 5
Cn1c(C(F)(F)F)ccc(-c2cc(C(=O)[O-])c(Cl)cc2F)c1=O.[Na+] [1-144] | 5
Cn1c(C(F)(F)F)ccc(-c2cc(CO)c(Cl)cc2F)c1=O [1-135] | 5
Cc1cc(-c2ccc(Cl)cc2Cl)c(=O)n(C)c1C(F)(F)F [Compound No. 1-11] | 5
COCOc1cc(-c2ccc(C(F)(F)F)n(C)c2=O)c(F)cc1Cl [1-24] | 5

The compounds below were run on rice flatsedge (Ci) in the same assay as above. Settings: 100 g of the active ingredient per 10 ares, evaluated on the 14th day after treatment.
Assay type: in vivo
Parameters: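 grade of growth control; 5 = at least 90%; 4 = 70 to 90%; 3 = 50 to 70%; 2 = 30 to 50%; 1 = 10 to 30%; 0 = under 10%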
In short: as §3

SMILES | Herbicidal effects Ci
Cn1c(C(F)(F)F)ccc(-c2cc(C3OCCO3)c(Cl)cc2F)c1=O [1-133] | 5
Cn1c(C(F)(F)F)ccc(-c2cc(C(=O)[O-])c(Cl)cc2F)c1=O.[Na+] [1-144] | 5
Cn1c(C(F)(F)F)ccc(-c2cc(CO)c(Cl)cc2F)c1=O [1-135] | 5
Cc1cc(-c2ccc(Cl)cc2Cl)c(=O)n(C)c1C(F)(F)F [Compound No. 1-11] | 5
COCOc1cc(-c2ccc(C(F)(F)F)n(C)c2=O)c(F)cc1Cl [1-24] | 5

These compounds were tested on Diaitaria ciliaris (Di) in the same assay as above. Settings: 100 g of the active ingredient per 10 ares, evaluated on the 14th day after treatment.
Assay type: in vivo
Parameters: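 grade of growth control; 5 = at least 90%; 4 = 70 to 90%; 3 = 50 to 70%; 2 = 30 to 50%; 1 = 10 to 30%; 0 = under 10%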
In short: as §3

SMILES | Herbicidal effects Di
Cn1c(C(F)(F)F)ccc(-c2cc(C3OCCO3)c(Cl)cc2F)c1=O [1-133] | 5
Cn1c(C(F)(F)F)ccc(-c2cc(C(=O)[O-])c(Cl)cc2F)c1=O.[Na+] [1-144] | 5
Cn1c(C(F)(F)F)ccc(-c2cc(CO)c(Cl)cc2F)c1=O [1-135] | 5
Cc1cc(-c2ccc(Cl)cc2Cl)c(=O)n(C)c1C(F)(F)F [Compound No. 1-11] | 5
COCOc1cc(-c2ccc(C(F)(F)F)n(C)c2=O)c(F)cc1Cl [1-24] | 5
